From patent US20260027048A1, “GEMFIBROZIL FORMULATION” (POLARYX THERAPEUTICS, INC., priority 2022, published 2026)
Read-outs that look alike come from different tables or passages of the source.

Assays:
[1] = cited from earlier work
[2] = Solubility testing of gemfibrozil in solvents/cosolvents at 12 mg/ml and 32 mg/ml; type: physicochemical; settings: tested at 12 and 32 mg/ml
Procedure: Two doses of gemfibrozil were considered for each solvent/cosolvent. A low dose gemfibrozil preparation: 60 mg gemfibrozil in 5 ml of solvent/cosolvent (12 mg/ml dose), and a high dose gemfibrozil preparation: 160 mg gemfibrozil in 5 mL of solvent/cosolvent (32 mg/ml dose). Table 5 below illustrates that the first six solvent/cosolvents achieved gemfibrozil solubilization at both the 12 mg/ml dose and the 32 mg/ml dose. The solvent/cosolvents included the sodium carbonate/bicarbonate buffer having a pH of 10.5, polyethylene glycol (PEG) 400, glyceryl monolinoleate, propylene glycol dicaprylate/dicaprate, propylene glycol, and glyceryl monooleate.
The citrate buffer having a pH of 4.5 with tocopheryl polyethylene glycol succinate (TPGS) achieved gemfibrozil solubilization only the 12 mg/ml dose. The remainder of the solvents/cosolvents were not able to solubilize gemfibrozil at either the low dose or the high dose concentration.

[3] = Solubility of gemfibrozil in PEG 400 over a concentration range; type: physicochemical; settings: standing upright at room temperature overnight
Procedure: A concentrated stock solution of gemfibrozil was prepared in PEG 400. Gemfibrozil was evaluated for its solubility in PEG 400 over concentration range to determine an upper concentration that could be used to prepare a stock solution of gemfibrozil in liquid form. On the day of preparation gemfibrozil was dissolved in the PEG 400 at the indicated concentration. All samples were clear upon mixing. Following mixing, samples were stored standing upright at room temperature overnight.

- Gemfibrozil Solubility ([2]; Glycerol and Polysorbate 80): Not soluble
- Gemfibrozil Solubility ([2]; Glyceryl monolinoleate): Soluble at 12 mg/ml and 32 mg/ml
- Gemfibrozil Solubility ([2]; Glyceryl monooleate): Soluble at 12 mg/ml and 32 mg/ml
- Gemfibrozil Solubility ([2]; Polyethylene glycol 400): Soluble at 12 mg/ml and 32 mg/ml
- Gemfibrozil Solubility ([2]; Propylene glycol dicaprylate/dicaprate): Soluble at 12 mg/ml and 32 mg/ml
- Gemfibrozil Solubility ([2]; Propylene glycol): Soluble at 12 mg/ml and 32 mg/ml
- Gemfibrozil Solubility ([2]; Soybean oil): Not soluble
- Gemfibrozil Solubility ([2]; pH 4.5 Citrate buffer and Poloxamer P188): Not soluble
- Gemfibrozil Solubility ([2]; pH 4.5 Citrate buffer and Solutol HS15): Not soluble
- Gemfibrozil Solubility ([2]; pH 4.5 citrate buffer and TPGS): Soluble at 12 mg/ml
- Gemfibrozil Solubility ([2]; pH 10.5 Sodium carbonate/bicarbonate buffer): Soluble at 12 mg/ml and 32 mg/ml
- solubility limit of gemfibrozil in PEG 400 [3]: 21.3 % w/w
SMILES: Cc1ccc(C)c(OCCCC(C)(C)C(=O)O)c1 [Gemfibrozil, 5-(2,5-dimethylphenoxy)-2,2-dimethyl-pentanoic acid]
- solubility of gemfibrozil ([1]; in DMSO): ~16 mg/mL
- solubility of gemfibrozil ([1]; in ethanol): approximately 30 mg/ml
- solubility of gemfibrozil ([1]; in water): approximately 0.03 mg/ml
